Experimental data as given in article PMC8237569 (Proceedings of the National Academy of Sciences of the …, 2021).
In brackets after ≈: the same amount, converted by molar mass.

Key:
[1] = test system: TA-C–resistant M. tuberculosis strains (fbiC, fgd1 mutants); type: cell-based
[2] = test system: NC1=NC2(CCCCC2)N(c2ccc(OCc3cn(CCCCOc4ccc5ccc(=O)oc5c4)nn3)cc2)C(N)=N1; assay: purified protein, by the assay type; details: pH 7.5

Molecule	MIC50 [1]	other results
NNC(=O)c1ccncc1 [INH, isoniazid]	0.4 µM (≈ 0.0549 µg/mL)	
Nc1ccc(C(=O)O)c(O)c1 [PAS, para-aminosalicylic acid]	0.2 µM (≈ 0.0306 µg/mL)	
O=[N+]([O-])c1cn2c(n1)OC[C@@H](OCc1ccc(OC(F)(F)F)cc1)C2 [PTM, pretomanid]	>100 µM	
CO[C@H]1/C=C/O[C@@]2(C)Oc3c(C)c(O)c4c(O)c(c(/C=N/N5CCN(C)CC5)c(O)c4c3C2=O)NC(=O)/C(C)=C\C=C\[C@H](C)[C@H](O)[C@@H](C)[C@@H](O)[C@@H](C)[C@H](OC(C)=O)[C@@H]1C [RIF, rifampicin]		MIC50, RIF [1]: 0.0016 µM (≈ 0.00132 µg/mL)
Rv1558 (Mycobacterium tuberculosis H37Rv)		Km [2]: 10.01 ± 1.6 µM
